What all share (type): in vitro ADME
Series [1] in a line: Stability in human plasma. The settings on record: for Human Plasma stability % remaining: T = 0, 37° C., 5 μM; for remaining at 1 h, 5 μM / remaining at 4 h, 5 μM: human, plasma (sodium or lithium heparin), 37° C. As for the experimental part:
(§1) Prior to the testing of stability in plasma (or blood) of a peptide batch, its purity (HPLC-UV) was determined.
(§2) Rat and Human plasma: anti-coagulant sodium or lithium heparin.
(§3) 100 μM solution of study compound in 50 mM phosphate buffer pH 7.4.
(§4) 950 μL plasma (or blood) was pre-incubated for 5 min at 37° C. 50 μL of compound stock solution was added. Final compound concentration=5 μM. Vortex and transfer 150 μL plasma (or blood) into an Eppendorf for each time point. The time points […] were carried out in duplicate for each species.
(§5) After incubation, 150 μL plasma (or blood) was extracted with 600 μL Acetonitrile containing 1% TFA. Said mixture was then vortexed and centrifuged 10 min at 14600 rpm. 200 μL supernatant was dried under N2. Sample was then reconstituted in 200 μL of H2O/CH3CN 98/2+0.1% FA+50 ng/ml Labetalol and analyzed using the analytical system used in solubility and stability studies.
(§6) For determination of the amount of the remaining peptide, the peak areas of the target compound at t0 and each time point […] were compared, resulting in “% remaining peptide”, following the equation: % remaining peptide=[(peak area peptide time)×100]/peak area peptide t0. The stability was expressed as “% remaining peptide”.

A further series can be described thus: Stability in human blood. The note with it: for Human blood stability % remaining: T = 0, 37° C., 5 μM; for remaining at 1 h, 5 μM / remaining at 4 h, 5 μM: human, whole blood (sodium or lithium heparin), 37° C. The procedure:
as §1
(§7) Rat and Human blood: anti-coagulant sodium or lithium heparin.
as §3, §4, §5, §6

Another series is described as follows: Stability in rat plasma. The settings on record: for Rat plasma stability % remaining: T = 0, 37° C., 5 μM; for remaining at 1 h, 5 μM / remaining at 4 h, 5 μM: rat, plasma (sodium or lithium heparin), 37° C. As for the experimental part:
as §1, §2, §3, §4, §5, §6

A further series in a line: Stability in rat blood. The note with it: for Rat blood stability % remaining: T = 0, 37° C., 5 μM; for remaining at 1 h, 5 μM / remaining at 4 h, 5 μM: rat, whole blood (sodium or lithium heparin), 37° C. The procedure:
as §1, §7, §3, §4, §5, §6

Structures are written as SMILES. Marks after values point to notes of the source that are not given here. Starred links: 1 amine or outer side, 2 acyl side, 3 side chain; linkers in the order of their positions; H or OH if unused. Non-standard residues stand in square brackets, D forms with d. Residues, ends and D or L forms follow the SMILES beside them. Groups on a side chain read outwards from the residue. *: point of attachment. X1 = CCCCCCCCCCCCCCCC(=O)N[C@@H](CCC(=O)N[C@@H](CCC(=O)N[C@@H](CCC(=O)NCCCOCCOCCOCCCNC(=O)CCC(=O)NCCCOCCOCCOCCCNC(=O)CCC(=O)NCCCOCCOCCOCCCN*)C(=O)O)C(=O)O)C(=O)O; X2 = CCCCCCCCCCCCCCCC(=O)N[C@@H](CCC(=O)N[C@@H](CCC(=O)N[C@@H](CCC(=O)NCCCOCCOCCOCCCNC(=O)CCC(=O)NCCCOCCOCCOCCCN*)C(=O)O)C(=O)O)C(=O)O; Suc = O=C(CCC(=O)[*:2])[*:1]; αMeK = C[C@](N)(CCCCN)C(=O)O; Aib = CC(C)(N)C(=O)O

Consider `CCCCCCCCCCCCCCCC(=O)N[C@@H](CCC(=O)N[C@@H](CCC(=O)N[C@@H](CCC(=O)NCCCOCCOCCOCCCNC(=O)CCC(=O)NCCCOCCOCCOCCCNC(=O)CCC(=O)NCCCOCCOCCOCCCNC(=O)CCC(=O)NCCCC[C@H](NC(=O)CNC(=O)[C@H](CCC(=O)O)NC(=O)C(C)(C)NC(=O)C(C)(C)NC(=O)[C@@H](NC(=O)[C@H](CCCCNC(C)=O)NC(=O)[C@H](C)NC(=O)[C@H](CCCNC(=N)N)NC(=O)[C@@H](NC(=O)[C@H](CCCCN)NC(=O)[C@H](CCC(=O)O)NC(=O)[C@H](CCCNC(=N)N)NC(=O)CNC(=O)[C@H](CCC(=O)O)NC(=O)[C@H](CC(C)C)NC(C)=O)C(C)C)[C@@H](C)CC)C(=O)N[C@@H](CO)C(=O)N[C@H](C(=O)N[C@@H](Cc1ccccc1)C(=O)N[C@@H](CO)C(=O)N[C@@](C)(CCCCN)C(=O)N[C@@H](CCCNC(=N)N)C(=O)N[C@@H](C)C(=O)N[C@@H](CCCCNC(C)=O)C(N)=O)[C@@H](C)O)C(=O)O)C(=O)O)C(=O)O` [compound 3] (Ac-LEGREKVRAK(Ac)I[Aib][Aib]EGK([Suc-X1])STFS[αMeK]RAK(Ac)-NH2), for which, in series [1], the “Human Plasma stability % remaining” value turned out to be 99%; the amount remaining at 1 h, 5 μM is 95%; the share remaining at 4 h, 5 μM came out at 100%. Also, in “Stability in human blood”, the “Human blood stability % remaining” value is reported as 100* %; the share remaining at 1 h, 5 μM turned out to be 95%; the share remaining at 4 h, 5 μM amounted to 95%. For the same molecule, in “Stability in rat plasma”, the “Rat plasma stability % remaining” value worked out at 98%; the share remaining at 1 h, 5 μM was 100%; the amount remaining at 4 h, 5 μM amounted to 87%. Besides, in “Stability in rat blood”, the “Rat blood stability % remaining” value is 100* %; the amount remaining at 1 h, 5 μM was 95%; the amount remaining at 4 h, 5 μM worked out at 84%.

Take `CCCCCCCCCCCCCCCC(=O)N[C@@H](CCC(=O)N[C@@H](CCC(=O)N[C@@H](CCC(=O)NCCCOCCOCCOCCCNC(=O)CCC(=O)NCCCOCCOCCOCCCNC(=O)CCC(=O)NCCCC[C@H](NC(=O)CNC(=O)[C@H](CCC(=O)O)NC(=O)C(C)(C)NC(=O)C(C)(C)NC(=O)[C@@H](NC(=O)[C@H](CCCCNC(C)=O)NC(=O)[C@H](C)NC(=O)[C@H](CCCNC(=N)N)NC(=O)[C@@H](NC(=O)[C@H](CCCCN)NC(=O)[C@H](CCC(=O)O)NC(=O)[C@H](CCCNC(=N)N)NC(=O)CNC(=O)[C@H](CCC(=O)O)NC(=O)[C@H](CC(C)C)NC(C)=O)C(C)C)[C@@H](C)CC)C(=O)N[C@@H](CO)C(=O)N[C@H](C(=O)N[C@@H](Cc1c[nH]c2ccccc12)C(=O)N[C@@H](CO)C(=O)NC(C)(C)C(=O)N[C@@H](CCCNC(=N)N)C(=O)N[C@@H](CCCCN)C(=O)N[C@@H](CCCCNC(C)=O)C(N)=O)[C@@H](C)O)C(=O)O)C(=O)O)C(=O)O` [compound 4] (Ac-LEGREKVRAK(Ac)I[Aib][Aib]EGK([Suc-X2])STWS[Aib]RKK(Ac)-NH2): in series [1], the “Human Plasma stability % remaining” value is given as 100%; the fraction remaining at 1 h, 5 μM was 100%; the fraction remaining at 4 h, 5 μM is 100%. In the series “Stability in human blood”, the “Human blood stability % remaining” value was 100* %; the amount remaining at 1 h, 5 μM was 100%; the fraction remaining at 4 h, 5 μM was 99%. Moreover, in “Stability in rat plasma”, the “Rat plasma stability % remaining” value is 100%; the amount remaining at 1 h, 5 μM was found to be 100%; the amount remaining at 4 h, 5 μM is 59%. Moreover, in “Stability in rat blood”, the “Rat blood stability % remaining” value was 100* %; the fraction remaining at 1 h, 5 μM was found to be 102%; the share remaining at 4 h, 5 μM is 86%.
